In patent publication US8530474B2, “Substituted 6-(1-piperazinyl)-pyridazines as 5-HT6 receptor antagonists” (Janssen Pharmaceutica NV, priority 2008, dated 2013):
pKd, pKi: −log10 of the molar value. Counter-ions that a name gives are not always drawn.

Legend:
human H3 receptor [1] = target: T1, human H3 receptor (Homo sapiens, UniProt Q9Y5N1); test: In vitro binding assay for human H3 receptor (125I-iodoproxyfan, SK-N-MC cell membranes); conditions: iodoproxifan 1 nM, Ki converted from IC50
T1 construct: expressed in transfected cells
Procedure: In vitro Binding Assay for Human H3 Receptor
Briefly, cell pellets from SK-N-MC cells expressing the human H3 receptor were homogenized in 50 mM Tris-HCl/5 mM EDTA and recentrifuged at 30000 g for 30 min. Pellets were rehomogenized in 50 mM Tris/5 mM EDTA (pH 7.4). Membranes were incubated for 1 h at 25° C. with ^125I-iodoproxyfan diluted with cold iodoproxifan in 50 mM Tris-HCl/5 mM EDTA. The final total iodoproxifan concentration in the reactions is 1 nM. The cold iodoproxifan is included at 0.975 nM and the ^125I-iodoproxyfan is included at 0.025 nM final concentration. The reactions were terminated by filtration thru GF/B plates (pretreated with 0.3% polyethylenimine) on the cell harvester. The plates were washed 5 times with buffer. Nonspecific binding was defined in the presence of 100 μM histamine Inhibitory concentration (responsible for 50% inhibition of maximal effect, IC50) values were determined by a single site curve-fitting program (GraphPad, San Diego, Calif.) and converted to Ki values based on a ^125I-iodoproxyfan dissociation constant (Kd) of 1 nM.

[2] = target: T2, human Serotonin 5-HT6 receptor (Homo sapiens, UniProt P50406); test: In vitro binding affinity for human 5-HT6 receptor ([3H]LSD, membranes of transfected HEK cells); conditions: human 5-HT6, [3H]Lysergic acid diethylamide 2 nM, HEK cell membranes; read-out: pIC50 Values (5-HT6) (converted)
T2 construct: expressed in transfected cells; host or cells: HEK cells
Procedure: D. Pharmacology In vitro Binding Affinity for Human 5-HT6 Receptor
Frozen membranes of human Serotonin 5-HT6 receptor-transfected HEK cells were thawed, briefly homogenized using an Ultra-Turrax T25 homogeniser and diluted in 50 mM Tris-HCl assay buffer containing 10 mM MgCl2, 1 mM EDTA and 10 μM Pargyline (adjusted to pH 7.4 with HCl) to an appropriate protein concentration optimized for specific and non-specific binding. Radioligand [^3H]Lysergic acid diethylamide (Perkin Elmer, specific activity ˜80 Ci/mmol) was diluted in assay buffer at a concentration of 20 nM. Radioligand (20 μl), along with 40 μl of either the 10% DMSO control, Methiothepine (10^−5M final concentration for measurement of non specific binding), or compound of interest, was then incubated with 70 μl of the prepared membrane solution and 70 μl of WGA (wheat germ agglutinin) coated PVT (polyvinyltoluidene) beads (0.25 mg/well final concentration). The final concentration of radioligand per well was 2 nM. After shaking for 24 h. at RT, plates were counted in a Topcount™ scintillation counter. Percentage specific binding and competition binding curves were calculated using S-Plus software (Insightful).

human H3 receptor [3] = target: T1, human H3 receptor; conditions: used to convert IC50 to Ki, read-out: dissociation constant (Kd) of radioligand; cited from earlier work

T1 sequence (Q9Y5N1 whole entry): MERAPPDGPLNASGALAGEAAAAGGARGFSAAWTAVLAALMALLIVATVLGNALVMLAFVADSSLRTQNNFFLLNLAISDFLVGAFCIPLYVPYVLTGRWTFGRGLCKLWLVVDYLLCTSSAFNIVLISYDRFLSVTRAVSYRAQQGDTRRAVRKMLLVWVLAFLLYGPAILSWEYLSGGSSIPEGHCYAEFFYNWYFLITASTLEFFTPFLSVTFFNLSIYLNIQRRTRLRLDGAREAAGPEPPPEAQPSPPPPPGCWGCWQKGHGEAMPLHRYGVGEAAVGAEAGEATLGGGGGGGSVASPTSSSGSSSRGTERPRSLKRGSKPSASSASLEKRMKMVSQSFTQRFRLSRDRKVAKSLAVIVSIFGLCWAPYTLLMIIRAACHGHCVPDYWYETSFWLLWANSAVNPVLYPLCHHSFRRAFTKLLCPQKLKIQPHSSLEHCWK
T2 sequence (P50406 whole entry): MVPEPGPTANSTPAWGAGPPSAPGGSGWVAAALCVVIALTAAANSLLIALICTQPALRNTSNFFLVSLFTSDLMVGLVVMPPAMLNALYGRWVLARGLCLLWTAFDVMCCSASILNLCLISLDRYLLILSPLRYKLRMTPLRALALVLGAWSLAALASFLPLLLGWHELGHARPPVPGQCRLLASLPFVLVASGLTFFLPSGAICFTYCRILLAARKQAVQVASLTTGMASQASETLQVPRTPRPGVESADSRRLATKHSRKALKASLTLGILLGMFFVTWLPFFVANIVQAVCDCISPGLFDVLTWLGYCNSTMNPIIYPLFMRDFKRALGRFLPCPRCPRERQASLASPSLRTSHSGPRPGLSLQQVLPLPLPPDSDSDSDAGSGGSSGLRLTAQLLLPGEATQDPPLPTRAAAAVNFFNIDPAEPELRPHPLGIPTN

Row | Compound | melting point [°C] | pKi (human H3 receptor [1]) | IC50 [2] [µM] | pKd (human H3 receptor [3])
1 | Fc1ccc(C#Cc2cc(N3CCNCC3)nnc2C(F)(F)F)cc1 [Co. No. 9, 4-[(4-fluorophenyl)ethynyl]-6-(1-piperazinyl)-3-(trifluoromethyl)-pyridazine] | 251.6 | < 5.00 | 1.58 | 
2 | Fc1ccc(COc2cc(N3CCNCC3)nnc2C(F)(F)F)cc1 [Co. No. 15, 4-[(4-fluorophenyl)methoxy]-6-(1-piperazinyl)-3-(trifluoromethyl)-pyridazine] | 142.1 | < 5.00 | 0.398 | 
3 | Fc1ccc(Nc2cc(N3CCNCC3)nnc2C(F)(F)F)cc1 [Co. No. 16, N-(4-fluorophenyl)-6-(1-piperazinyl)-3-(trifluoromethyl)-4-pyridazinamine.2.5HCl .0.5H2O] |  | < 5.00 |  | 
4 | Fc1ccc(Oc2cc(N3CCNCC3)nnc2C(F)(F)F)cc1 [Co. No. 1, 4-(4-fluorophenoxy)-6-(1-piperazinyl)-3-(trifluoromethyl)-pyridazine] | 132.5 | 5.30 | 0.251 | 
5 | Fc1ccc(Nc2cc(N3CCNCC3)nnc2C(F)(F)F)cc1 [Co. No. 2, N-(4-fluorophenyl)-6-(1-piperazinyl)-3-(trifluoromethyl)-4-pyridazinamine] |  |  | 0.0631 | 
6 | Fc1ccc(CNc2cc(N3CCNCC3)nnc2C(F)(F)F)cc1 [Co. No. 14, N-[(4-fluorophenyl)methyl]-6-(1-piperazinyl)-3-(trifluoromethyl)-4-pyridazinamine] |  | < 5.00 | 0.631 | 
7 | Fc1ccc(Nc2cc(N3CCNCC3)nnc2C(F)(F)F)cc1 (as salt: HCl) (hydrate or solvate) [Co. No. 16, N-(4-fluorophenyl)-6-(1-piperazinyl)-3-(trifluoromethyl)-4-pyridazinamine.2.5HCl .0.5H2O] | > 300 |  |  | 
8 | Fc1ccc(/C=C/c2cc(N3CCNCC3)nnc2C(F)(F)F)cc1 [Co. No. 8, 4-[(E)-2-(4-fluorophenyl)ethenyl]-6-(1-piperazinyl)-3-(trifluoromethyl)-pyridazine] | 180.6 | < 5.00 | 0.0631 | 
9 | OC(c1ccccc1)c1cc(N2CCNCC2)nnc1C(F)(F)F (stereo not drawn) [Co. No. 5, alpha-phenyl-6-(1-piperazinyl)-3-(trifluoromethyl)-4-pyridazinemethanol] |  | < 5.00 | 0.631 | 
10 | FC(F)(F)c1nnc(N2CCN(Cc3ccncc3)CC2)cc1/C=C/c1ccccc1 (as salt: trifluoroacetate) [Co. No. 17, 4-[(E)-2-phenylethenyl]-6-[4-(4-pyridinylmethyl)-1-piperazinyl]-3-(trifluoromethyl)-pyridazine] | 163.9 |  |  | 
11 | O=C(c1ccccc1)c1cc(N2CCNCC2)nnc1C(F)(F)F [Co. No. 4, phenyl[6-(1-piperazinyl)-3-(trifluoromethyl)-4-pyridazinyl]-methanone] | 289.5 | < 5.00 | 0.126 | 
12 | Ic1ccc(COCCCc2cnc[nH]2)cc1 [^125I-iodoproxyfan] |  |  |  | 9.00
13 | Fc1ccc(/C=C\c2cc(N3CCNCC3)nnc2C(F)(F)F)cc1 [Co. No. 7, 4-[(Z)-2-(4-fluorophenyl)ethenyl]-6-(1-piperazinyl)-3-(trifluoromethyl)-pyridazine] |  | < 5.00 | 0.158 | 
14 | OC(c1ccccc1)c1cc(N2CCNCC2)nnc1C(F)(F)F (stereo not drawn) (as salt: HCl) [Co. No. 5, alpha-phenyl-6-(1-piperazinyl)-3-(trifluoromethyl)-4-pyridazinemethanol] | 199.7 |  |  | 
15 | FC(F)(F)c1nnc(N2CCN(Cc3ccccn3)CC2)cc1/C=C/c1ccccc1 [Co. No. 18, 4-[(E)-2-phenylethenyl]-6-[4-(2-pyridinylmethyl)-1-piperazinyl]-3-(trifluoromethyl)-pyridazine] | 121.4 | < 5.00 | 6.31 | 
16 | CN1CCN(c2cc(/C=C/c3ccccc3)c(C(F)(F)F)nn2)CC1 [Co. No. 11, 6-(4-methyl-1-piperazinyl)-4-[(E)-2-phenylethenyl]-3-(trifluoromethyl)-pyridazine] | 135.8 | < 5.00 | 0.398 | 
17 | FC(F)(F)c1nnc(N2CCN(Cc3ccncc3)CC2)cc1/C=C/c1ccccc1 [Co. No. 17, 4-[(E)-2-phenylethenyl]-6-[4-(4-pyridinylmethyl)-1-piperazinyl]-3-(trifluoromethyl)-pyridazine] |  | < 5.00 | 1.26 | 
18 | FC(F)(F)c1nnc(N2CCNCC2)cc1Cc1ccccc1 [Co. No. 3, 4-(phenylmethyl)-6-(1-piperazinyl)-3-(trifluoromethyl)-pyridazine] | 133.8 | < 5.00 | 0.126 | 
19 | O=S(=O)(c1ccccc1)c1cc(N2CCNCC2)nnc1C(F)(F)F [Co. No. 6, 4-(phenylsulfonyl)-6-(1-piperazinyl)-3-(trifluoromethyl)-pyridazine] | 180.3 | < 5.00 | 0.251 | 
20 | CN1CCN(c2cc(C(=O)c3ccccc3)c(C(F)(F)F)nn2)CC1 [Co. No. 13, [6-(4-methyl-1-piperazinyl)-3-(trifluoromethyl)-4-pyridazinyl]phenyl-methanone] | 136.3 | < 5.00 | 0.158 | 
